In patent US10473574B2, “Assembly for assessing drug permeability with adjustable biomimetic properties” (Syddansk Universitet, priority 2014, dated 2019):
Blank lines part the entries; values can stand above or below the molecule they belong to.

Key:
in vitro = assay: in vitro
Experimental: A sheet of cellulose hydrate was prewashed in demineralized water. The sheet was put on a flat surface and sprayed with a 1% (M/M) solution of egg yolk lecithin (E-80, Lipoid GmbH, Ludwigshafen, Germany) in ethanol. […] Once the organic solvent was evaporated, two coated sheets were placed one upon the other, sandwiching the phospholipids.
Frantz cells with a permeation surface of 1 cm^2, a maximum volume in the upper compartment of 1.8 mL and a fixed volume in the bottom compartment of 8 mL were used.
The barrier was placed in between of the donor and the acceptor chamber, and a permeability experiment was performed at 25° C. […]
8 mL of phosphate buffer solution was placed into the lower compartment. The barrier was placed, and at time zero (start of the experiment) 1.5 mL of a 10 mM phosphate buffer solution of calcein was placed in the upper compartment. Every 60 minutes, 0.2 mL of the solution in the lower compartment were withdrawn and calcein concentration quantified by fluorescence spectroscopy. The removed volume was replaced with an equivalent amount of fresh buffer.
For all permeability studies, Franz diffusion cells with a surface area of 1 cm^2, upper chamber nominal volume of 2 mL and lower chamber volume of 8 mL were employed. The donor phase (upper chamber) was filled with 1.5 mL hydrophilic marker calcein (5 mM) and different surfactants and solvents, whereas the acceptor compartment (lower chamber) was filled with 8 mL PBS (7.4±0.05). The barrier was placed between the donor and acceptor compartment and the flux (3) of calcein was measured over time. The permeability studies were carried out over a 5 hours period, and samples of 200 μL were withdrawn from the acceptor chamber every 30 min for the first 2 hours and then every 60 min. The withdrawn sample volume was replaced with an equal amount of fresh PBS at each time point. […]

[1] = Permeability of calcein through the empty barrier support (no lipid layer); type: in vitro ADME; conditions: pH 7.4, calcein 5 mM donor, PBS acceptor
From the text: It is visible that the permeation of calcein through the empty barrier support is much faster. Specifically, the permeability of calcein is approx. 10 times higher as compared to the barrier of the present invention.

change of permeability with Polysorbat 80 (in vitro): not increased, but decreased
influence of lipid composition of the barrier on permeability (in vitro): strong influence
increase of permeability with 5% Cremophor relative to PBS (in vitro; 5 h, 5 mM, pH 7.4): ~2 fold
Papp at 5 h, 5 mM (in vitro; pH 7.4, Papp in PBS): 2.7 ± 0.5 ×10⁻⁶ cm/s
Papp (in vitro; pH 7.4, permeability coefficient (P)): 1.2 ± 0.1 ×10⁻⁶ cm/s
Papp at 5 h, 5 mM [1]: 16.5 ± 1 ×10⁻⁶ cm/s
Structure (SMILES): O=C(O)CN(CC(=O)O)Cc1cc2c(cc1O)Oc1cc(O)c(CN(CC(=O)O)CC(=O)O)cc1C21OC(=O)c2ccccc21 [calcein]

influence of lipid composition of the barrier on permeability (in vitro): strong influence
Structure (SMILES): CC(C)(C)NCC(O)COc1cccc2c1CC(O)C(O)C2 (stereo not drawn) [nadolol]

influence of lipid composition of the barrier on permeability (in vitro): strong influence
Structure (SMILES): CC(C)Cc1ccc(C(C)C(=O)O)cc1 (stereo not drawn) [ibuprofen]

Structure (SMILES): Cn1c(=O)c2c(ncn2C)n(C)c1=O [caffeine]
permeability with FeSSIF as acceptor media versus other acceptor media (in vitro): unchanged
